Measurements from article PMC4604124, “In Vitro Characterization of the Pharmacological Properties of the Anti-Cancer Chelator, Bp4eT, and Its Phase I Metabolites” (PLoS ONE, 2015).
Several values for one entry are separate records, joined by “and”; a condition that tells them apart may be missing. Equal entries are not always repeated.

Legend:
[1] = Ascorbate oxidation assay (redox activity of iron complexes); format: biochemical;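 for %Fe 30min (ascorbate oxidation, Fe 100%), průměr: IBE 3 means excess free chelator over iron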;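 for %Fe 30min (ascorbate oxidation, Fe 100%): IBE 3 means excess free chelator over iron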;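 for %Fe 30min (ascorbate oxidation, Fe = 100%), průměr (mean): IBE 1 means iron-binding equivalents giving fully coordinated iron-chelator complexes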;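 for %Fe 30min (ascorbate oxidation, Fe = 100%), single replicates: IBE 1 means iron-binding equivalents giving fully coordinated iron-chelator complexes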;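 for %Fe 30min: ascorbate oxidation as % of the Fe control (Fe 100%): IBE 0.1 means iron-binding equivalents with iron in excess over chelator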;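 for Change of absorbance, odečet 0 (time 0 subtracted), čas 10, průměr: IBE 3 means excess free chelator over 10 µM FeCl3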;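 for Change of absorbance, odečet 0 (time 0 subtracted), čas 10: IBE 3 means excess free chelator over 10 µM FeCl3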;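 for Change of absorbance, odečet 0 (time 0 subtracted), čas 20, průměr: 100 µM ascorbate with 10 µM FeCl3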;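 for Change of absorbance, odečet 0 (time 0 subtracted), čas 20: 100 µM ascorbate with 10 µM FeCl3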;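 for Change of absorbance, odečet 0 (time 0 subtracted), čas 30, průměr: 100 µM ascorbate with 10 µM FeCl3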;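 for Change of absorbance, odečet 0 (time 0 subtracted), čas 30: 100 µM ascorbate with 10 µM FeCl3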;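 for odečet 0 (reading minus time 0 reading) at čas 20, single replicates: IBE 1 means fully coordinated iron chelator complexes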;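 for odečet 0 (reading minus time 0 reading) at čas 30, průměr (mean): IBE 1 means fully coordinated iron chelator complexes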;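 for odečet 0 (reading minus time 0 reading) at čas 30, single replicates: IBE 1 means fully coordinated iron chelator complexes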;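 for raw reading at čas 20 (time 20), průměr (mean): IBE 1 means fully coordinated iron chelator complexes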;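 for raw reading at čas 20 (time 20), single replicates: IBE 1 means fully coordinated iron chelator complexes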;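 for raw reading at čas 30 (time 30), průměr (mean): IBE 1 means fully coordinated iron chelator complexes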;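 for raw reading at čas 30 (time 30), single replicates: IBE 1 means fully coordinated iron chelator complexes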
MCF-7 cells = assay: Cellular 59Fe uptake from 59Fe2-transferrin; format: cell-based, human; parameters: key to Uptake 59Fe, Ave / Uptake 59Fe: % of internalized 59Fe in untreated control cells; conditions: Control Ave = 100
Summary of the method: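 Confluent MCF-7 cells were incubated 3 h at 37°C with 0.75 μM ⁵⁹Fe₂-transferrin (500 pCi/pmol Fe) plus chelator at 25 μM. Membrane-bound ⁵⁹Fe was released with Pronase (1 mg/mL, 30 min, 4°C). Pronase-insensitive internalized ⁵⁹Fe was expressed as % of untreated control.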

caspase 9 = assay: Caspase activity, luminescent kit, caspase 9; format: cell-based, human; conditions: for kaspáza 9, raw signal / kaspáza 9, signal / viabilita: individual experiments by date; for kaspáza 9, raw signal, průměry / kaspáza 9, % kontroly / kaspáza 9, signal / viabilita, průměry: mean; for kaspáza 9, % kontroly / kaspáza 9, signal / viabilita / kaspáza 9, signal / viabilita, průměry: normalised to viability
Procedure: To assess the effect of the compounds on caspase activity, MCF-7 cells were incubated with 100 nM Bp4eT or its metabolites for 3, 24 or 72 h/37°C in 96-well plates, as described above. The cells were then lysed by adding 100 μL of cold lysis buffer (100 mM HEPES, 10 mM CHAPS, 10 mM D-L-dithiothreitol, pH 7.4) to 100 μL of medium in each well. Lysates were immediately frozen at -80°C. Thawed lysates were used to assess caspase activity using luminescent kits for caspases 3/7, 8 and 9 (Promega, Madison, WI, USA). The luminescence was measured using the Tecan Infinite 200M plate reader. Caspase activity in the experimental groups was corrected according to the cellular viability of each group and expressed as a percentage of activity of the untreated control (100%).

[2] = sheet IBE 1, time 10, replicates
[3] = sheet IBE 1, time 20, replicates
[4] = sheet IBE 1, time 30, replicates

SMILES: CCNC(=O)NN=C(c1ccccc1)c1ccccn1 [Z-Bp4eS, 2-benzoylpyridine 4-ethylsemicarbazone]
- %Fe 30min: ascorbate oxidation as % of the Fe control (Fe 100%) ([1]; IBE 0.1, 30 min, mean (průměr)): 99.02%
- Change of absorbance after subtraction of time 0 (odečet 0) ([1]; IBE 0.1, time 10, mean (průměr)): -0.03387
- Change of absorbance after subtraction of time 0 (odečet 0) ([1]; IBE 0.1, time 20, mean (průměr)): -0.06534
- Change of absorbance after subtraction of time 0 (odečet 0) ([1]; IBE 0.1, time 30, mean (průměr)): -0.09415
- Absorbance (ascorbate, λ = 265 nm) ([1]; IBE 0.1, čas 0 (time 0), mean (průměr)): 0.7817
- Absorbance (ascorbate, λ = 265 nm) ([1]; IBE 0.1, čas 10 (time 10), mean (průměr)): 0.7478
- Absorbance (ascorbate, λ = 265 nm) ([1]; IBE 0.1, čas 20 (time 20), mean (průměr)): 0.7164
- Absorbance (ascorbate, λ = 265 nm) ([1]; IBE 0.1, čas 30 (time 30), mean (průměr)): 0.6875
- %Fe 30min (ascorbate oxidation, Fe = 100%), průměr (mean) ([1]; sheet IBE 1, 30min, Fe 100%, mean): 102.1%
- %Fe 30min (ascorbate oxidation, Fe = 100%), single replicates ([1]; sheet IBE 1, 30min, Fe 100%, replicates): 100.6% and 105.4% and 99.81% and 137.6% and 115.7% and 98.81% and 93.49% and 86.5% and 81.2%
- raw reading at čas 0 (time 0), průměr (mean) ([1]; sheet IBE 1, time 0, mean of 9 readings): 0.8114
- raw reading at čas 0 (time 0), single replicates ([1]; sheet IBE 1, time 0, replicates of 2014-03-24 (two runs) and 2014-03-25): 0.8361 and 0.825 and 0.7812 and 0.7956 and 0.8012 and 0.8226 and 0.8158 and 0.7997 and 0.8255
- odečet 0 (reading minus time 0 reading) at čas 10, průměr (mean) ([1]; sheet IBE 1, time 10, mean): -0.03354
- raw reading at čas 10 (time 10), průměr (mean) ([1]; sheet IBE 1, time 10, mean of 9 readings): 0.7779
- odečet 0 (reading minus time 0 reading) at čas 10, single replicates [1, 2]: -0.0282 and -0.0302 and -0.027 and -0.05761 and -0.03481 and -0.02931 and -0.03593 and -0.03173 and -0.02703
- raw reading at čas 10 (time 10), single replicates [1, 2]: 0.753 and 0.7654 and 0.7742 and 0.765 and 0.781 and 0.7704 and 0.7896 and 0.8044 and 0.798
- odečet 0 (reading minus time 0 reading) at čas 20, průměr (mean) ([1]; sheet IBE 1, time 20, mean): -0.06288
- raw reading at čas 20 (time 20), průměr (mean) ([1]; sheet IBE 1, time 20, mean of 9 readings): 0.7486
- odečet 0 (reading minus time 0 reading) at čas 20, single replicates [1, 3]: -0.05822 and -0.05772 and -0.05662 and -0.09103 and -0.07213 and -0.05933 and -0.06186 and -0.05806 and -0.05096
- raw reading at čas 20 (time 20), single replicates [1, 3]: 0.723 and 0.7379 and 0.7446 and 0.7316 and 0.7437 and 0.7404 and 0.7637 and 0.7781 and 0.7741
- odečet 0 (reading minus time 0 reading) at čas 30, průměr (mean) ([1]; sheet IBE 1, time 30, mean): -0.09054
- raw reading at čas 30 (time 30), průměr (mean) ([1]; sheet IBE 1, time 30, mean of 9 readings): 0.7209
- odečet 0 (reading minus time 0 reading) at čas 30, single replicates [1, 4]: -0.08693 and -0.09103 and -0.08623 and -0.1189 and -0.09997 and -0.08537 and -0.08823 and -0.08163 and -0.07663
- raw reading at čas 30 (time 30), single replicates [1, 4]: 0.6943 and 0.7046 and 0.715 and 0.7038 and 0.7159 and 0.7144 and 0.7373 and 0.7545 and 0.7484
- %Fe 30min (ascorbate oxidation, Fe 100%), průměr ([1]; sheet IBE 3, 30min, Fe alone = 100%, mean (průměr) of the 9 replicates): 110.1%
- %Fe 30min (ascorbate oxidation, Fe 100%) ([1]; sheet IBE 3, 30min, Fe alone = 100%, single replicates): 104.7% and 99.68% and 110% and 146.8% and 116.1% and 111.6% and 112.3% and 95.38% and 93.85%
- Change of absorbance, odečet 0 (time 0 subtracted), čas 10, průměr ([1]; sheet IBE 3, time 10 minus time 0, mean (průměr)): -0.03903
- Change of absorbance, odečet 0 (time 0 subtracted), čas 10 ([1]; sheet IBE 3, time 10 minus time 0, single replicates): -0.0367 and -0.0322 and -0.0443 and -0.057 and -0.0434 and -0.0428 and -0.03948 and -0.02878 and -0.02658
- Change of absorbance, odečet 0 (time 0 subtracted), čas 20, průměr ([1]; sheet IBE 3, time 20 minus time 0, mean (průměr)): -0.07371
- Change of absorbance, odečet 0 (time 0 subtracted), čas 20 ([1]; sheet IBE 3, time 20 minus time 0, single replicates): -0.07156 and -0.06896 and -0.07856 and -0.1012 and -0.07529 and -0.07709 and -0.07424 and -0.05944 and -0.05704
- Change of absorbance, odečet 0 (time 0 subtracted), čas 30, průměr ([1]; sheet IBE 3, time 30 minus time 0, mean (průměr)): -0.1017
- Change of absorbance, odečet 0 (time 0 subtracted), čas 30 ([1]; sheet IBE 3, time 30 minus time 0, single replicates): -0.09723 and -0.09253 and -0.1021 and -0.1363 and -0.1078 and -0.1036 and -0.1028 and -0.0873 and -0.0859
- Uptake 59Fe, Ave (MCF-7 cells; average of all replicates): 99.1556
- Uptake 59Fe (MCF-7 cells; single replicate (three per date)): 95.0144 and 99.433 and 101.961 and 99.9491 and 96.6715 and 101.111 and 99.7324 and 96.809 and 101.719
- kaspáza 9, raw signal (caspase 9; 3 hodiny): 6118 and 2344.5 and 3460 and 2039.5
- kaspáza 9, raw signal, průměry (caspase 9; 3 hodiny): 3490.5
- kaspáza 9, % kontroly (caspase 9; 3 hodiny): 100.62 % kontroly
- kaspáza 9, signal / viabilita (caspase 9; 3 hodiny): 62.8087 and 24.0691 and 35.5211 and 20.938
- kaspáza 9, signal / viabilita, průměry (caspase 9; 3 hodiny): 35.8342
- kaspáza 9, raw signal (caspase 9; 24 hodin): 4532 and 2581 and 5427.5 and 4043
- kaspáza 9, raw signal, průměry (caspase 9; 24 hodin): 4145.88
- kaspáza 9, % kontroly (caspase 9; 24 hodin): 101.82 % kontroly
- kaspáza 9, signal / viabilita (caspase 9; 24 hodin): 45.5674 and 25.9509 and 54.5713 and 40.6507
- kaspáza 9, signal / viabilita, průměry (caspase 9; 24 hodin): 41.6851
- kaspáza 9, raw signal (caspase 9; 72 hodin): 21491.5 and 17542 and 23160 and 18381
- kaspáza 9, raw signal, průměry (caspase 9; 72 hodin): 20143.6
- kaspáza 9, % kontroly (caspase 9; 72 hodin): 100.13 % kontroly
- kaspáza 9, signal / viabilita (caspase 9; 72 hodin): 229.757 and 187.535 and 247.595 and 196.504
- kaspáza 9, signal / viabilita, průměry (caspase 9; 72 hodin): 215.348
